Assay results from patent publication US9637491B2, “Pyrazolo[4,3-D]pyrimidines as kinase inhibitors” (Origenis GmbH, priority 2012, dated 2017).

Biological target: T1, SYK kinase (Homo sapiens, UniProt P43405)
T1 construct: purchased Invitrogen, Carlsbad
Experiment: SYK assay (OMNIA Kinase Assay, Invitrogen)
Format: biochemical
Settings: SYK Activities; 1 mM ATP, 10 μM Omnia Peptide Substrate Tyr 7, 30° C.
How it was run: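 Continuous-read fluorescence kinase assay: SOX-labelled Tyr 7 peptide (10 μM) with 1 mM ATP and 0.2 mM DTT, 30° C, reaction started by adding SYK. Fluorescence (ex 360/em 485 nm) read every 30 s for 30 min. IC50 from sigmoidal fit of reaction velocity versus inhibitor concentration.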

Compound	IC50 [nM]
CC(C)(O)Cn1cc(Nc2nc(-c3ccc4cn[nH]c4c3)nc3cn[nH]c23)cn1 [Example 449, 1-(4-((5-(1H-indazol-6-yl)-1H-pyrazolo[4,3-d]pyrimidin-7-yl)amino)-1H-pyrazol-1-yl)-2-methylpropan-2-ol]	10 to 100
O=c1cc(Nc2nc(C3CC3)nc3cn[nH]c23)ccn1C1CC1 [Example 296, 1-cyclopropyl-4-((5-cyclopropyl-1H-pyrazolo[4,3-d]pyrimidin-7-yl)amino)pyridin-2(1H)-one]	10 to 100
c1cc(-c2nc(Nc3cnn(C4CCCOC4)c3)c3[nH]ncc3n2)co1 (stereo not shown) [Example 483, 5-(furan-3-yl)-N-(1-(tetrahydro-2H-pyran-3-yl)-1H-pyrazol-4-yl)-1H-pyrazolo[4,3-d]pyrimidin-7-amine]	10 to 100
Fc1cccc(F)c1-c1nc(Nc2cnn(C3CCOCC3)c2)c2[nH]ncc2n1 [Example 439, 5-(2,6-difluorophenyl)-N-(1-(tetrahydro-2H-pyran-4-yl)-1H-pyrazol-4-yl)-1H-pyrazolo[4,3-d]pyrimidin-7-amine]	100 to 1000
COCCCn1cc(Nc2nc(-c3cccs3)nc3cn[nH]c23)cn1 [Example 429, N-(1-(3-methoxypropyl)-1H-pyrazol-4-yl)-5-(thiophen-2-yl)-1H-pyrazolo[4,3-d]pyrimidin-7-amine]	10 to 100
COc1ccc(Nc2nc(-c3ccon3)nc3cn[nH]c23)cc1OC [Example 73, N-(3,4-dimethoxyphenyl)-5-(isoxazol-3-yl)-1H-pyrazolo[4,3-d]pyrimidin-7-amine]	100 to 1000
COc1ccc(Nc2nc(C3CC3)nc3cn[nH]c23)cc1OC [Example 19, 5-cyclopropyl-N-(3,4-dimethoxyphenyl)-1H-pyrazolo[4,3-d]pyrimidin-7-amine]	10 to 100
CC(C)(C#N)n1cc(Nc2nc(C3CC3)nc3cn[nH]c23)cn1 [Example 177, 2-(4-((5-cyclopropyl-1H-pyrazolo[4,3-d]pyrimidin-7-yl)amino)-1H-pyrazol-1-yl)-2-methylpropanenitrile]	100 to 1000
COCC(COC)n1cc(Nc2nc(-c3ccco3)nc3cn[nH]c23)cn1 [Example 455, N-(1-(1,3-dimethoxypropan-2-yl)-1H-pyrazol-4-yl)-5-(furan-2-yl)-1H-pyrazolo[4,3-d]pyrimidin-7-amine]	100 to 1000
CN1CCC(n2cc(Nc3nc(-c4cnn(C)c4)nc4cn[nH]c34)cn2)CC1 [Example 190, 5-(1-methyl-1H-pyrazol-4-yl)-N-(1-(1-methylpiperidin-4-yl)-1H-pyrazol-4-yl)-1H-pyrazolo[4,3-d]pyrimidin-7-amine]	10 to 100
COc1ccc(Nc2nc(-c3cccc(C(=O)Nc4ccc(-c5ncco5)cc4)c3)nc3cn[nH]c23)cc1OC [Example 321, 3-(7-((3,4-dimethoxyphenyl)amino)-1H-pyrazolo[4,3-d]pyrimidin-5-yl)-N-(4-(oxazol-2-yl)phenyl)benzamide]	100 to 1000
OC1CCN(c2ccc(Nc3nc(-c4ccco4)nc4cn[nH]c34)cc2)CC1 [Example 450, 1-(4-((5-(furan-2-yl)-1H-pyrazolo[4,3-d]pyrimidin-7-yl)amino)phenyl)piperidin-4-ol]	10 to 100
c1csc(-c2nc(Nc3cnn(C4CCOCC4)c3)c3[nH]ncc3n2)c1 [Example 430, N-(1-(tetrahydro-2H-pyran-4-yl)-1H-pyrazol-4-yl)-5-(thiophen-2-yl)-1H-pyrazolo[4,3-d]pyrimidin-7-amine]	10 to 100
CC(=O)N1CCC(n2cc(Nc3nc(-c4cnn(C)c4)nc4cn[nH]c34)cn2)CC1 [Example 189, 1-(4-(4-((5-(1-methyl-1H-pyrazol-4-yl)-1H-pyrazolo[4,3-d]pyrimidin-7-yl)amino)-1H-pyrazol-1-yl)piperidin-1-yl)ethan-1-one]	< 10
CC(C)(C)N1CCC(n2cc(Nc3nc(-c4ccc5cn[nH]c5c4)nc4cn[nH]c34)cn2)CC1 [Example 468, N-(1-(1-(tert-butyl)piperidin-4-yl)-1H-pyrazol-4-yl)-5-(1H-indazol-6-yl)-1H-pyrazolo[4,3-d]pyrimidin-7-amine]	< 10
CC(C)Cn1cc(Nc2nc(-c3ccco3)nc3cn[nH]c23)cn1 [Example 238, 5-(furan-2-yl)-N-(1-isobutyl-1H-pyrazol-4-yl)-1H-pyrazolo[4,3-d]pyrimidin-7-amine]	10 to 100
CN1CCC(n2cc(Nc3nc(-c4ncco4)nc4cn[nH]c34)cn2)CC1 [Example 255, N-(1-(1-methylpiperidin-4-yl)-1H-pyrazol-4-yl)-5-(oxazol-2-yl)-1H-pyrazolo[4,3-d]pyrimidin-7-amine]	100 to 1000

More lines, now with the values ahead:

IC50 [nM]	Compound
100 to 1000	COCCCn1cc(Nc2nc(-c3cnn(C)c3)nc3cn[nH]c23)cn1 [Example 436, N-(1-(3-methoxypropyl)-1H-pyrazol-4-yl)-5-(1-methyl-1H-pyrazol-4-yl)-1H-pyrazolo[4,3-d]pyrimidin-7-amine]
< 10	COCCCn1cc(Nc2nc(-c3cocn3)nc3cn[nH]c23)cn1 [Example 245, N-(1-(3-methoxypropyl)-1H-pyrazol-4-yl)-5-(oxazol-4-yl)-1H-pyrazolo[4,3-d]pyrimidin-7-amine]
< 10	c1cc(N2CCOCC2)ccc1Nc1nc(C2CCC2)nc2cn[nH]c12 [Example 120, 5-cyclobutyl-N-(4-morpholinophenyl)-1H-pyrazolo[4,3-d]pyrimidin-7-amine]
10 to 100	CC(C)Cn1cc(Nc2nc(C3CC3)nc3cn[nH]c23)cn1 [Example 233, 5-cyclopropyl-N-(1-isobutyl-1H-pyrazol-4-yl)-1H-pyrazolo[4,3-d]pyrimidin-7-amine]
100 to 1000	Cc1c(Nc2nc(-c3ccoc3)nc3cn[nH]c23)cnn1C1CCOCC1 [Example 295, 5-(furan-3-yl)-N-(5-methyl-1-(tetrahydro-2H-pyran-4-yl)-1H-pyrazol-4-yl)-1H-pyrazolo[4,3-d]pyrimidin-7-amine]
10 to 100	CC(=O)N1CCN(c2ccc(Nc3nc(-c4cnn(C)c4)nc4cn[nH]c34)cc2)CC1 [Example 187, 1-(4-(4-((5-(1-methyl-1H-pyrazol-4-yl)-1H-pyrazolo[4,3-d]pyrimidin-7-yl)amino)phenyl)piperazin-1-yl)ethan-1-one]
< 10	c1ccc2sc(-c3nc(Nc4cnn(C5CCOCC5)c4)c4[nH]ncc4n3)nc2c1 [Example 413, 5-(benzo[d]thiazol-2-yl)-N-(1-(tetrahydro-2H-pyran-4-yl)-1H-pyrazol-4-yl)-1H-pyrazolo[4,3-d]pyrimidin-7-amine]
100 to 1000	CC(C(=O)O)n1cc(Nc2nc(-c3ccoc3)nc3cn[nH]c23)cn1 (stereo not shown) [Example 486, 2-(4-((5-(furan-3-yl)-1H-pyrazolo[4,3-d]pyrimidin-7-yl)amino)-1H-pyrazol-1-yl)propanoic acid]
100 to 1000	O=C(c1ccc(Nc2nc(C3CCC3)nc3cn[nH]c23)cc1F)N1CCOCC1 [Example 193, (4-((5-cyclobutyl-1H-pyrazolo[4,3-d]pyrimidin-7-yl)amino)-2-fluorophenyl)(morpholino)methanone]
10 to 100	CC(=O)N1CCC(n2cc(Nc3nc(C4CCC4)nc4cn[nH]c34)cn2)CC1 [Example 205, 1-(4-(4-((5-cyclobutyl-1H-pyrazolo[4,3-d]pyrimidin-7-yl)amino)-1H-pyrazol-1-yl)piperidin-1-yl)ethan-1-one]
< 10	CN1CCC(n2cc(Nc3nc(-c4cccs4)nc4cn[nH]c34)cn2)CC1 [Example 433, N-(1-(1-methylpiperidin-4-yl)-1H-pyrazol-4-yl)-5-(thiophen-2-yl)-1H-pyrazolo[4,3-d]pyrimidin-7-amine]
100 to 1000	COCCn1cc(Nc2nc(-c3cocn3)nc3cn[nH]c23)cn1 [Example 128, N-(1-(2-methoxyethyl)-1H-pyrazol-4-yl)-5-(oxazol-4-yl)-1H-pyrazolo[4,3-d]pyrimidin-7-amine]
100 to 1000	CC(C)Cn1cc(Nc2nc(-c3c(F)cccc3F)nc3cn[nH]c23)cn1 [Example 440, 5-(2,6-difluorophenyl)-N-(1-isobutyl-1H-pyrazol-4-yl)-1H-pyrazolo[4,3-d]pyrimidin-7-amine]
100 to 1000	Fc1cc(Nc2nc(-c3ccno3)nc3cn[nH]c23)ccc1N1CCOCC1 [Example 70, N-(3-fluoro-4-morpholinophenyl)-5-(isoxazol-5-yl)-1H-pyrazolo[4,3-d]pyrimidin-7-amine]
< 10	COCCCn1cc(Nc2nc(-c3ccco3)nc3cn[nH]c23)cn1 [Example 215, 5-(furan-2-yl)-N-(1-(3-methoxypropyl)-1H-pyrazol-4-yl)-1H-pyrazolo[4,3-d]pyrimidin-7-amine]
10 to 100	c1coc(-c2nc(Nc3cnn(C4CCOCC4)c3)c3[nH]ncc3n2)c1 [Example 117, 5-(furan-2-yl)-N-(1-(tetrahydro-2H-pyran-4-yl)-1H-pyrazol-4-yl)-1H-pyrazolo[4,3-d]pyrimidin-7-amine]
100 to 1000	CC(C)(C)n1cc(Nc2nc(-c3cccc(NS(C)(=O)=O)c3)nc3cn[nH]c23)cn1 [Example 258, N-(3-(7-((1-(tert-butyl)-1H-pyrazol-4-yl)amino)-1H-pyrazolo[4,3-d]pyrimidin-5-yl)phenyl)methanesulfonamide]
10 to 100	Fc1cc2cn[nH]c2cc1-c1nc(Nc2ccc(N3CCOCC3)cc2)c2[nH]ncc2n1 [Example 77, 5-(5-fluoro-1H-indazol-6-yl)-N-(4-morpholinophenyl)-1H-pyrazolo[4,3-d]pyrimidin-7-amine]
10 to 100	CN(C)C(=O)Cn1cc(Nc2nc(-c3cccc(-c4cccnc4)c3)nc3cn[nH]c23)cn1 [Example 466, N,N-dimethyl-2-(4-((5-(3-(pyridin-3-yl)phenyl)-1H-pyrazolo[4,3-d]pyrimidin-7-yl)amino)-1H-pyrazol-1-yl)acetamide]
10 to 100	O=C1COc2ccc(Nc3nc(C4CC4)nc4cn[nH]c34)cc2N1 [Example 21, 6-((5-cyclopropyl-1H-pyrazolo[4,3-d]pyrimidin-7-yl)amino)-2H-benzo[b][1,4]oxazin-3(4H)-one]
